According to patent US20230085307A1, “PYRIDAZINONE COMPOUND AND HERBICIDE” (NISSAN CHEMICAL CORPORATION, priority 2019, published 2023):

Experiments:
[1] = system: Italian ryegrass; assay: Test Example 5: herbicidal effect by foliage application, plastic box (Table 20, symbol K); assay type: in vivo, Italian ryegrass (Lolium multiflorum); details: foliage application, 320 g/ha
In short: (§1)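 Plants sown in sterilized diluvial soil and grown 14 days in a greenhouse at 25° C to 30° C, then sprayed on the foliage with the compound's emulsion diluted in water to a predetermined herbicide amount. Injury to weeds and crops scored three weeks after application on a visual rating scale.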

[2] = system: wild oat; assay: Test Example 4: herbicidal effect by soil treatment (Table 19, symbol I); assay type: in vivo, wild oat (Avena fatua); details: amount of applied herbicide 320 g/ha
In short: (§2)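 Seeds were sown in sterilized diluvial soil and covered with about 1.5 cm of soil. An emulsion formulation diluted with water to a predetermined herbicide amount was sprayed evenly onto the soil surface. Plants grew in a greenhouse at 25° C. to 30° C., and the effect was scored three weeks after application using criteria from an earlier test.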

[3] = system: redroot pigweed; assay: Test Example 5: herbicidal effect by foliage application, plastic box (Table 20, symbol N); assay type: in vivo, redroot pigweed (Amaranthus retroflexus); details: foliage application, 320 g/ha, evaluated three weeks after application
In short: as §1

[4] = system: green foxtail; assay: Test Example 5: herbicidal effect by foliage application, plastic box (Table 20, symbol G); assay type: in vivo, green foxtail (Setaria viridis); details: foliage application, 320 g/ha
In short: as §1

[5] = system: blackgrass; assay: Test Example 4: herbicidal effect by soil treatment (Table 19, symbol J); assay type: in vivo, blackgrass (Alopecurus myosuroides); details: amount of applied herbicide 320 g/ha
In short: as §2

[6] = system: windgrass; assay: Test Example 5: herbicidal effect by foliage application, plastic box (Table 20, symbol L); assay type: in vivo, windgrass (Apera spica-venti); details: foliage application, 320 g/ha
In short: as §1

[7] = system: chickweed; assay: Test Example 4: herbicidal effect by soil treatment (Table 19, symbol P); assay type: in vivo, common chickweed (Stellaria media); details: amount of applied herbicide 320 g/ha
In short: as §2

[8] = system: wild oat; assay: Test Example 5: herbicidal effect by foliage application, plastic box (Table 20, symbol I); assay type: in vivo, wild oat (Avena fatua); details: foliage application, 320 g/ha
In short: as §1

[9] = system: persian speedwell; assay: Test Example 4: herbicidal effect by soil treatment (Table 19, symbol R); assay type: in vivo, Persian speedwell (Veronica persica); details: amount of applied herbicide 320 g/ha
In short: as §2

[10] = system: lambsquarters; assay: Test Example 5: herbicidal effect by foliage application, plastic box (Table 20, symbol O); assay type: in vivo, lambsquarters (Chenopodium album); details: foliage application, 320 g/ha
In short: as §1

[11] = system: redroot pigweed; assay: Test Example 4: herbicidal effect by soil treatment (Table 19, symbol N); assay type: in vivo, redroot pigweed (Amaranthus retroflexus); details: amount of applied herbicide 320 g/ha
In short: as §2

[12] = system: false cleavers; assay: Test Example 5: herbicidal effect by foliage application, plastic box (Table 20, symbol Q); assay type: in vivo, false cleavers (Galium spurium); details: foliage application, 320 g/ha
In short: as §1

[13] = system: Italian ryegrass; assay: Test Example 4: herbicidal effect by soil treatment (Table 19, symbol K); assay type: in vivo, Italian ryegrass (Lolium multiflorum); details: amount of applied herbicide 320 g/ha
In short: as §2

[14] = system: green foxtail; assay: Test Example 4: herbicidal effect by soil treatment (Table 19, symbol G); assay type: in vivo, green foxtail (Setaria viridis); details: amount of applied herbicide 320 g/ha
In short: as §2

[15] = system: windgrass; assay: Test Example 4: herbicidal effect by soil treatment (Table 19, symbol L); assay type: in vivo, windgrass (Apera spica-venti); details: amount of applied herbicide 320 g/ha
In short: as §2

[16] = system: southern crabgrass; assay: Test Example 5: herbicidal effect by foliage application, plastic box (Table 20, symbol F); assay type: in vivo, southern crabgrass (Digitaria ciliaris); details: foliage application, 320 g/ha
In short: as §1

[17] = system: velvetleaf; assay: Test Example 5: herbicidal effect by foliage application, plastic box (Table 20, symbol M); assay type: in vivo, velvetleaf (Abutilon theophrasti); details: foliage application, 320 g/ha
In short: as §1

[18] = system: lambsquarters; assay: Test Example 4: herbicidal effect by soil treatment (Table 19, symbol O); assay type: in vivo, lambsquarters (Chenopodium album); details: amount of applied herbicide 320 g/ha
In short: as §2

[19] = system: chickweed; assay: Test Example 5: herbicidal effect by foliage application, plastic box (Table 20, symbol P); assay type: in vivo, common chickweed (Stellaria media); details: foliage application, 320 g/ha, evaluated three weeks after application
In short: as §1

[20] = system: barnyard grass; assay: Test Example 4: herbicidal effect by soil treatment (Table 19, symbol H); assay type: in vivo, barnyard grass (Echinochloa crus-galli); details: amount of applied herbicide 320 g/ha
In short: as §2

[21] = system: persian speedwell; assay: Test Example 5: herbicidal effect by foliage application, plastic box (Table 20, symbol R); assay type: in vivo, Persian speedwell (Veronica persica); details: foliage application, 320 g/ha
In short: as §1

[22] = system: southern crabgrass; assay: Test Example 4: herbicidal effect by soil treatment (Table 19, symbol F); assay type: in vivo, southern crabgrass (Digitaria ciliaris); details: amount of applied herbicide 320 g/ha
In short: as §2

[23] = system: velvetleaf; assay: Test Example 4: herbicidal effect by soil treatment (Table 19, symbol M); assay type: in vivo, velvetleaf (Abutilon theophrasti); details: amount of applied herbicide 320 g/ha
In short: as §2

[24] = system: blackgrass; assay: Test Example 5: herbicidal effect by foliage application, plastic box (Table 20, symbol J); assay type: in vivo, blackgrass (Alopecurus myosuroides); details: foliage application, 320 g/ha
In short: as §1

[25] = system: barnyard grass; assay: Test Example 5: herbicidal effect by foliage application, plastic box (Table 20, symbol H); assay type: in vivo, barnyard grass (Echinochloa crus-galli); details: foliage application, 320 g/ha
In short: as §1

[26] = system: rice flat sedge; assay: Test Example 3: herbicidal effect by foliage application, Wagner pot (Table 18, symbol E); assay type: in vivo, rice flat sedge (Cyperus iria); details: 320 g/ha
In short: (§3)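 Plants were sown in alluvial soil held under 0.1–0.5 cm standing water and grown 14 days in a greenhouse at 25–30 °C. An emulsifiable formulation, water-diluted to the set dose, was then sprayed onto the foliage, and effects were scored three weeks later using previously defined criteria.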

[27] = system: Chinese sprangletop; assay: Test Example 3: herbicidal effect by foliage application, Wagner pot (Table 18, symbol D); assay type: in vivo, chinese sprangletop (Leptochloa chinensis); details: 320 g/ha
In short: as §3

[28] = system: barnyard grass; assay: Test Example 3: herbicidal effect by foliage application, Wagner pot (Table 18, symbol H); assay type: in vivo, barnyard grass (Echinochloa crus-galli); details: 320 g/ha
In short: as §3

[29] = evaluated three weeks after application

COc1cc(F)ccc1-c1sc2ccc(-c3ccoc3)cc2c1-c1c(O)c(C)nn(C)c1=O [2-170]
herbicidal effect on K: Italian ryegrass (criteria 0-5) [1, 29]: 0 (Herbicidal rate of 5% or less (almost no effect))
I: wild oat, herbicidal effect rating [2]: 0 (Herbicidal rate of 5% or less (almost no effect))
herbicidal effect on N: redroot pigweed (criteria 0-5) [3]: 3 (Herbicidal rate of 40% or more and less than 70%)
herbicidal effect on G: green foxtail (criteria 0-5) [4, 29]: 0 (Herbicidal rate of 5% or less (almost no effect))
J: blackgrass, herbicidal effect rating [5]: 0 (Herbicidal rate of 5% or less (almost no effect))
herbicidal effect on L: windgrass (criteria 0-5) [6, 29]: 0 (Herbicidal rate of 5% or less (almost no effect))
P: chickweed, herbicidal effect rating [7]: 0 (Herbicidal rate of 5% or less (almost no effect))
herbicidal effect on I: wild oat (criteria 0-5) [8, 29]: 0 (Herbicidal rate of 5% or less (almost no effect))
R: persian speedwell, herbicidal effect rating [9]: 0 (Herbicidal rate of 5% or less (almost no effect))
herbicidal effect on O: lambsquarters (criteria 0-5) [10, 29]: 3 (Herbicidal rate of 40% or more and less than 70%)
N: redroot pigweed, herbicidal effect rating [11]: 0 (Herbicidal rate of 5% or less (almost no effect))
herbicidal effect on Q: false cleavers (criteria 0-5) [12, 29]: 0 (Herbicidal rate of 5% or less (almost no effect))
K: Italian ryegrass, herbicidal effect rating [13]: 0 (Herbicidal rate of 5% or less (almost no effect))
G: green foxtail, herbicidal effect rating [14]: 0 (Herbicidal rate of 5% or less (almost no effect))
L: windgrass, herbicidal effect rating [15]: 0 (Herbicidal rate of 5% or less (almost no effect))
herbicidal effect on F: southern crabgrass (criteria 0-5) [16, 29]: 1 (Herbicidal rate of 5% or more and less than 20%)
herbicidal effect on M: velvetleaf (criteria 0-5) [17, 29]: 3 (Herbicidal rate of 40% or more and less than 70%)
O: lambsquarters, herbicidal effect rating [18]: 2 (Herbicidal rate of 20% or more and less than 40%)
herbicidal effect on P: chickweed (criteria 0-5) [19]: 5 (Herbicidal rate of 90% or more (almost completely withered))
H: barnyard grass, herbicidal effect rating [20]: 0 (Herbicidal rate of 5% or less (almost no effect))
herbicidal effect on R: persian speedwell (criteria 0-5) [21, 29]: 1 (Herbicidal rate of 5% or more and less than 20%)
F: southern crabgrass, herbicidal effect rating [22]: 3 (Herbicidal rate of 40% or more and less than 70%)
M: velvetleaf, herbicidal effect rating [23]: 0 (Herbicidal rate of 5% or less (almost no effect))
herbicidal effect on J: blackgrass (criteria 0-5) [24, 29]: 0 (Herbicidal rate of 5% or less (almost no effect))
herbicidal effect on H: barnyard grass (criteria 0-5) [25, 29]: 0 (Herbicidal rate of 5% or less (almost no effect))

CCOc1cc2sc(-c3ccccc3OC)c(-c3c(O)c(C)nn(C)c3=O)c2cc1F [5-065]
herbicidal effect on Italian ryegrass (K) ([1]; three weeks after application): 4 (Herbicidal rate of 70% or more and less than 90%)
I: wild oat, herbicidal effect grade [2]: 1 (Herbicidal rate of 5% or more and less than 20%)
herbicidal effect on green foxtail (G) ([4]; three weeks after application): 5 (Herbicidal rate of 90% or more (almost completely withered))
J: blackgrass, herbicidal effect grade [5]: 3 (Herbicidal rate of 40% or more and less than 70%)
herbicidal effect on windgrass (L) ([6]; three weeks after application): 5 (Herbicidal rate of 90% or more (almost completely withered))
herbicidal effect on rice flat sedge (E) [26]: 4 (Herbicidal rate of 70% or more and less than 90%)
P: chickweed, herbicidal effect grade [7]: 5 (Herbicidal rate of 90% or more (almost completely withered))
herbicidal effect on Chinese sprangletop (D) [27]: 3 (Herbicidal rate of 40% or more and less than 70%)
herbicidal effect on wild oat (I) ([8]; three weeks after application): 4 (Herbicidal rate of 70% or more and less than 90%)
R: persian speedwell, herbicidal effect grade [9]: 5 (Herbicidal rate of 90% or more (almost completely withered))
herbicidal effect on lambsquarters (O) ([10]; three weeks after application): 5 (Herbicidal rate of 90% or more (almost completely withered))
N: redroot pigweed, herbicidal effect grade [11]: 5 (Herbicidal rate of 90% or more (almost completely withered))
herbicidal effect on barnyard grass (H) [28]: 4 (Herbicidal rate of 70% or more and less than 90%)
herbicidal effect on false cleavers (Q) ([12]; three weeks after application): 5 (Herbicidal rate of 90% or more (almost completely withered))
K: Italian ryegrass, herbicidal effect grade [13]: 3 (Herbicidal rate of 40% or more and less than 70%)
G: green foxtail, herbicidal effect grade [14]: 4 (Herbicidal rate of 70% or more and less than 90%)
L: windgrass, herbicidal effect grade [15]: 3 (Herbicidal rate of 40% or more and less than 70%)
herbicidal effect on southern crabgrass (F) ([16]; three weeks after application): 4 (Herbicidal rate of 70% or more and less than 90%)
herbicidal effect on velvetleaf (M) ([17]; three weeks after application): 5 (Herbicidal rate of 90% or more (almost completely withered))
O: lambsquarters, herbicidal effect grade [18]: 5 (Herbicidal rate of 90% or more (almost completely withered))
H: barnyard grass, herbicidal effect grade [20]: 4 (Herbicidal rate of 70% or more and less than 90%)
herbicidal effect on persian speedwell (R) ([21]; three weeks after application): 5 (Herbicidal rate of 90% or more (almost completely withered))
F: southern crabgrass, herbicidal effect grade [22]: 0 (Herbicidal rate of 5% or less (almost no effect))
M: velvetleaf, herbicidal effect grade [23]: 2 (Herbicidal rate of 20% or more and less than 40%)
herbicidal effect on blackgrass (J) ([24]; three weeks after application): 4 (Herbicidal rate of 70% or more and less than 90%)
herbicidal effect on barnyard grass (H) ([25]; three weeks after application): 5 (Herbicidal rate of 90% or more (almost completely withered))
